For data set [1], the system named is C. difficile ATCC 43255. In words: Determination of minimal-inhibitory concentrations (microdilution), C. difficile ATCC 43255. The format is cell-based, Clostridioides difficile. Particulars: for MIC: Clostridioides difficile. On the technique in general: Dilution methods test growth across graded concentrations, often in twofold steps.
A short description of data set [2]: Solubility observed during characterisation. Particulars: DMSO, room temperature.
Another data set deals with THP-1 cells. Description: Lactate dehydrogenase (LDH) cytotoxicity assay. The format is cell-based, human. Particulars: Homo sapiens.
The subject of the next data set is HepG2 cells. Description: XTT cytotoxicity assay. The format is cell-based. Particulars: Homo sapiens, HepG2, read-out: XTT IC50. Background: Tetrazolium assays rely on reduction of a dye to a coloured formazan, in cell work by metabolically active cells.
Data set [3] deals with C. difficile ATCC 43255 vegetative cells. Description: Mode of action by scanning electron microscopy (SEM). The settings on record: 8× MIC for 24 h.
Data set [4] deals with Lactobacillus gasseri HM-644. The settings on record: cited from earlier work.
The next data set concerns Gram-negative bacteria. The format is cell-based.
Data set [5] relates to Clostridioides difficile infection. Particulars: CDI patients; cited from earlier work.
The next data set has as its system A. baumanii ATCC17961. In words: MIC against A. baumanii. The class given is cell-based. Particulars: Acinetobacter baumannii, ATCC17961.
Data set [6] concerns Bifidobacterium longum HM-846. The settings on record: cited from earlier work.
Data set [7] deals with Bacteroides fragilis HM-709. The settings on record: cited from earlier work.
The subject of a further data set is P. aeruginosa ATCC27853. In words: MIC against P. aeruginosa. The class given is cell-based. Particulars: Pseudomonas aeruginosa, ATCC27853.
In data set [8] the test system is C. difficile ATCC 43255. The format is cell-based, Clostridioides difficile.
A further data set concerns E. coli ATCC25922. In words: MIC against E. coli. The class given is cell-based. Particulars: Escherichia coli, ATCC25922.
The next data set has as its system Veillonella sp. HM-49. Particulars: cited from earlier work.
In data set [9] the test system is extended panel of Gram-positive bacteria. In words: MIC range over extended panel of Gram-positive bacteria. The format is cell-based.
Data set [10] concerns Lactobacillus reuteri HM-102. Particulars: cited from earlier work.
The subject of the next data set is K. pneumoniae ATCC700603. Description: MIC against K. pneumoniae. The class given is cell-based. The settings on record: Klebsiella pneumoniae, ATCC700603.
Data set [11] deals with Fusobacterium nucleatum HM-992. Particulars: cited from earlier work.
The test system of another data set is E. aerogenes ATCC35029. Description: MIC against E. aerogenes. The format is cell-based. The settings on record: Klebsiella aerogenes, ATCC35029.
The subject of data set [12] is C. difficile ATCC 43255. In words: Minimal-bactericidal concentration (MBC). The class given is cell-based, Clostridioides difficile.
Setting [13] is: ATCC43255, 24 h, C. difficile ATCC 43255, 24 h, read-out: MIC (μg/mL) 24 h.

≈ marks a conversion by molar mass, not a printed value. Entries after “also recorded” stand apart in the source; their conditions may differ. Like-named read-outs stand apart in the source and are kept apart here.

Turning to `Cl.O=[N+]([O-])c1c[nH]c(-c2nc(-c3ccc(CN4CCCC4)cc3)no2)n1` [Compound 130], the “MIC (μg/mL) 48 h” value with C. difficile ATCC 43255 [1] (C. difficile ATCC 43255, 48-h incubation, Hydrochloride) was above 128 µg/mL. In addition, the MIC in the data set with C. difficile ATCC 43255 [1] (setting [13]) is above 128 µg/mL. In addition, the solubility entry in data set [2] was “barely soluble in DMSO”.
Consider `O=[N+]([O-])c1cnc(-c2nc(-c3ccc(OC4CCC4)cc3)no2)[nH]1` [Compound 131, 3-(4-Cyclobutoxyphenyl)-5-(5-nitro-1H-imidazol-2-yl)-1,2,4-oxadiazole], for which the MIC in the data set on C. difficile ATCC 43255 [1] (setting [13]) turned out to be 0.5 µg/mL (≈ 1.53 µM); in the data set with C. difficile ATCC 43255 [1] (ATCC43255, Table 1, strain ATCC 43255, read-out: MIC C. difficile) it was 0.25 µg/mL (≈ 0.764 µM). Further, the IC50 was above 128 µg/mL in the data set on THP-1 cells (THP-1, 24 h, read-out: LDH (IC50)); above 50 µg/mL in the data set on THP-1 cells (THP-1, read-out: toxicity IC50 (LDH assay)); 41.9 ± 4.5 µg/mL (≈ 128 µM) with HepG2 cells.
With `CN[C@H](CC(C)C)C(=O)N[C@H]1C(=O)N[C@@H](CC(N)=O)C(=O)N[C@H]2C(=O)N[C@H]3C(=O)N[C@H](C(=O)N[C@H](C(=O)O)c4cc(O)cc(O)c4-c4cc3ccc4O)[C@H](O)c3ccc(c(Cl)c3)Oc3cc2cc(c3O[C@@H]2O[C@H](CO)[C@@H](O)[C@H](O)[C@H]2O[C@H]2C[C@](C)(N)[C@H](O)[C@H](C)O2)Oc2ccc(cc2Cl)[C@H]1O` [VAN, vancomycin], in [3], the “effect on vegetative cells by SEM” value is reported as “damage the cell wall; also recorded: same effect”. Moreover, the MIC in data set [4] was 1 µg/mL (≈ 0.69 µM); with A. baumanii ATCC17961, above 128 µg/mL; in data set [6] it was 0.25 µg/mL (≈ 0.173 µM); in data set [7] it was 16 µg/mL (≈ 11 µM); against P. aeruginosa ATCC27853, above 128 µg/mL; with E. coli ATCC25922, above 128 µg/mL. The MIC in the data set on Veillonella sp. HM-49 was above 32 µg/mL; in data set [10] it was above 32 µg/mL; in the data set with K. pneumoniae ATCC700603, above 128 µg/mL; in [11], 0.25 µg/mL (≈ 0.173 µM); against E. aerogenes ATCC35029, above 128 µg/mL. For the same molecule, in the data set with Gram-negative bacteria, the “activity against Gram-negative organisms” value was “no activity”. Moreover, the recurrence of infection in data set [5] is listed as 24%. Moreover, the “increase in MIC on serial passage” value in the data set with C. difficile ATCC 43255 [8] was determined as 16 fold. Further, the “activity against Gram-positive bacteria” value in data set [9] is recorded as “has activity”. Besides, the bactericidal or bacteriostatic entry with C. difficile ATCC 43255 [12] is reported as “bacteriostatic”.

In general, IC50 refers to the point on the concentration scale where inhibition reaches its midpoint.

The record behind these values is US20260125371A1, “METHOD FOR INHIBITING CLOSTRIDIOIDES DIFFICILE SPORE GERMINATION” (UNIVERSITY OF NOTRE DAME DU LAC, priority 2022, published 2026).
